Reference: patent US11406707B2, “STAT3 phosphorylation during graft-versus-host disease” (H. LEE MOFFITT CANCER CENTER AND RESEARCH INSTITUTE, INC., priority 2014, dated 2022)

Experiments:
primed T-cells = test: Secondary alloMLR (3-day restimulation of primed T-cells) proliferation; assay type: cell-based, human
From the text: (§1) Bulk donor T-cells were allostimulated with cytokine-matured, allogeneic moDCs at a DC:T-cell ratio of 1:30 as previously described (Florida Blood Services) [Betts, B C, et al. (2011) Blood 118:5330-9; Betts, B C, et al. […] Betts, B C, et al. (2011) Blood 118:5340-3]. […] Lower doses of each drug were used in these experiments to mimic expected physiologic concentrations [Siddiquee, K, et al. (2007) Proceedings of the National Academy of Sciences of the United States of America 104:7391-6; Zeiser, R, et al. (2008) Blood 111:453-62], and to better detect potential synergistic activity with the combination of rapamycin and S3I-201. After 5 days of culture at […]-cell proliferation was measured by a colorimetric assay per the manufacturer's instructions (CellTiter 96 Aqueous One Solution Cell Proliferation Assay [MTS]; Promega, Madison, Wis. USA) [Betts, B C, et al. (2011) Blood 118:5330-9; Betts, B C, et al. […] Betts, B C, et al. (2011) Blood 118:5340-3]. Absorbance/optical density (OD) was analyzed at 490 nm. Secondary alloMLR: […] Following priming, the T-cells were then rested and re-cultured with fresh first-party moDCs (DC:T-cell ratio of 1:30). […] After 3 days, T-cell proliferation was measured by a colorimetric assay as described (Promega). T-cells alone and PHA-stimulated T-cells served as negative and positive controls, respectively, for both the primary and secondary alloMLRs.

iTregs and Tconvs = test: iTreg and Tconv expansion from DC-allostimulated naive CD4+ T cells; assay type: cell-based, human
Method: To evaluate iTreg development, naive CD4^+ cells were isolated from nylon-wool-eluted T cells by magnetic-bead selection (Miltenyi Biotec), based on the positive expression of CD4 and lack of CD45RO, CD25, or both. In addition, CD127 staining of the naive CD4^+ cells was performed after the purification, to ensure depletion of natural Tregs from the cell product. Negligible amounts of CD127^-, CD25^Bright nTregs were observed after magnetic-bead purification. […] The T cells were harvested and surface stained on day 5 for CD3, -4, -25, and -127, followed by fixation and permeabilization (eBioscience), and then intracellular staining for Foxp3 [Liu, W., et al. (2006) J. Exp. Med. 203, 1701-1711; […]., et al. (2006) J. Exp. Med. 203, 1693-1700]. Tregs were characterized by gating on the live cells expressing surface CD3^+, CD4^+, and absence of CD127, followed by expression of Foxp3 and CD25^bright [Liu, W., et al. (2006) J. Exp. Med. 203, 1701-1711; […]., et al. (2006) J. Exp. Med. 203, 1693-1700]. The absolute number of iTregs and Tconv (CD4^+ CD25^-) cells was obtained by timed acquisition. The ratio of iTreg:Tconv was calculated based on the absolute number of each T-cell population.

[1] = tested on: allostimulated T-cell proliferation; test: Primary 5-day alloMLR T-cell proliferation; assay type: cell-based, human
From the text: as §1

[2] = molecular target: STAT3 Ser727 and Y705 motifs (Homo sapiens, UniProt P40763); details: literature; cited from earlier work
STAT3 Ser727 and Y705 motifs, sequence (P40763 whole entry): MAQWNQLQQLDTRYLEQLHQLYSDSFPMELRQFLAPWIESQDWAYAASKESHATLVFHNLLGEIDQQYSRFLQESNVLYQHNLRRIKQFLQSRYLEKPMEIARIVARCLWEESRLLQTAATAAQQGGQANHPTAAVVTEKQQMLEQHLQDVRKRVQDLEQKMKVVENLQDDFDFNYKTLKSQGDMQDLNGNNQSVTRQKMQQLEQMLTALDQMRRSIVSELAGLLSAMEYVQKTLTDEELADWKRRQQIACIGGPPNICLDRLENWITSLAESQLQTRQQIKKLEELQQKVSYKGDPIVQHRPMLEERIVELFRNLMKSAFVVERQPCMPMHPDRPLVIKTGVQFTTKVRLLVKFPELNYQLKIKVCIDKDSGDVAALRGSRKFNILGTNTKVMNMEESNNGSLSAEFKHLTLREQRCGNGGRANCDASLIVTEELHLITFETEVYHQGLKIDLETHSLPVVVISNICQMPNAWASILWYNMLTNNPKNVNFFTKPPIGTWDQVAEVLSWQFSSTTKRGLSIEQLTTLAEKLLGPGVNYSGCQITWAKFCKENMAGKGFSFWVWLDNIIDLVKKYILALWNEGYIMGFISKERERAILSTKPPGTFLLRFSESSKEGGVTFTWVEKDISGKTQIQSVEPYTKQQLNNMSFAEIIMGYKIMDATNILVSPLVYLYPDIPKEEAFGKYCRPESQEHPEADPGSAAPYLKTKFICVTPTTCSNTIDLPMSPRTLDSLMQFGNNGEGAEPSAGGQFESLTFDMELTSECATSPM

CD8+ T cells = test: Evaluation of CD8 CTL capacity (CD107a, IFN-γ); assay type: cell-based, human; details: S3I-201 50 or 100 μM, day 5
Method: The naive CD8^+ T cells were purified by live cell sorting (CD4^− and CD45RO/CD25^−) and were stimulated with allogeneic moDCs (DC:T cell ratio of 1:30), with S3I-201 (50 or 100 μM) or DMSO added once on day 0. On day 5, the allosensitized CD8 T cells were harvested and stimulated with PMA/ionomycin in the presence of Golgi Stop and anti-CD107a, followed by surface CD8 and intracellular IFN-γ staining.

RORgammaT = RORgammaT expression by RT-PCR in allostimulated CD4+ T-cells; assay type: cell-based, human; details: S3I-201 alone, 5 days
Method: To optimize the detection of RORgammaT expression, CD4+ T-cells were isolated by magnetic bead negative selection (Miltenyi Biotec, Auburn, Calif. USA). […] (2011) Blood 118:5330-9; Betts, B C, et al. (2013) J Leukoc Biol. 2014 95(2):205-13; Betts, B C, et al. (2011) Blood 118:5340-3]. […] After the 5 day culture, the T-cells were harvested. Total RNA was extracted using TRIZOL (Life Technologies) according to manufacturer instructions. […] RT-PCR was carried out on an ABI 7900 instrument (Applied Biosystems) and performed [Ratajewski, M, et al. (2012) J Immunol 189:3034-42] with some modification using SYBR® Green PCR Master Mix (Life Technologies) as follows: 10 minutes at 95° C. and then 45 cycles each at 95° C. for 15 seconds, 59° C. for 45 seconds, and 72° C. for 10 seconds. The following primers were used: RORgammaT forward [NT] ID NO:7) and reverse […] NO:8); GAPDH forward [NT] ID NO:9) and reverse [NT] ID NO:10). PCR product purity was assessed by dissociation curves. The differences in gene expression were calculated by 2-ΔΔCt in triplicate. Data were normalized to GAPDH expression.

STAT5 = test: IL-2-pulsed STAT5 phosphorylation in alloactivated T cells (flow cytometry); assay type: cell-based, human
Method: The 3-day exposure to allogenic moDCs allows the responding T cells to increase CD25 expression and capacity to receive IL-2 signaling, while resting or stimulated T cells phosphorylate STAT3 in response to IL-6 [Betts, B. C., et al. (2011) Blood 118, 5330-5339]. […] T-cell STAT phosphorylation was determined by surface staining for CD3, followed by fixation (CytoFix; […] The percentage of STAT3 and bright STAT5 phosphorylation in the T cells is depicted by the gates in each respective histogram (FIG. 1C, D).

## Cc1ccc(S(=O)(=O)OCC(=O)Nc2ccc(C(=O)O)c(O)c2)cc1 [S3I-201]
Primed T-cells; Homo sapiens, T-cell, S3I-201 50 μM, read-out: inhibition of proliferation in comparison to DMSO
  inhibition at 50 µM: 67%
Primed T-cells; S3I-201 50 μM alone
  proliferation of primed T-cells on rechallenge: significantly suppressed
iTregs and Tconvs; S3I-201 25 μM and 50 μM, dose-dependent, day 5
  absolute number of iTregs: significantly increased
iTregs and Tconvs; S3I-201 100 μM
  number of iTregs compared with DMSO: significantly reduced
iTregs and Tconvs; S3I-201, day 5
  number of alloreactive Tconvs: dramatically reduced
  ratio of iTregs to Tconvs: increased ratio
[1]; S3I-201 50 uM single agent
  allostimulated T-cell proliferation: significantly reduced
[1]; S3I-201 below 50 μM single agent
  alloreactive T-cell proliferation: no effect
[2]
  phosphorylation of the STAT3 Ser727 motif: much less
  phosphorylation of the STAT3 Y705 motif: predominantly inhibits
CD8+ T cells
  CTL potential vs DMSO control: not significantly different
  cytolytic potential by CD107a expression and intracellular IFN-γ production: intact cytolytic potential
RORgammaT
  RORgammaT expression compared with DMSO: significant suppression
STAT5; S3I-201 100 μM vs DMSO
  off-target effect on IL-2/STAT5 phosphorylation (geometric MFI ratio, percentage): decrease in IL-2/STAT5 phosphorylation
STAT5; S3I-201 50 or 100 μM, 15 min IL-2 pulse, vs unstimulated baseline
  IL-2-induced STAT5 phosphorylation: occurred in all treated T cells
